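Grown in 96-well plates, cells were treated for 48 hours with each compound at five concentrations. Insufficient inhibition: endpoint recorded as highest concentration tested. At the GI50, growth is halved.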 Activity calls are given as the source filed them. Cut-off read from the data, not from the text of the source: active = GI50 up to about 1.1 µM and inactive = higher.
How the values were obtained:
Experiment in all cases: NCI tumour cell line growth inhibition, 48 h
[1] = tested on: HCC 2998
[2] = tested on: HOP-92
[3] = tested on: KM12
[4] = tested on: IGROV-1
[5] = tested on: NCI-H460
[6] = tested on: RPMI-8226
[7] = tested on: A549
[8] = tested on: SW-620
[9] = tested on: RXF 393
[10] = tested on: SK-MEL-28
[11] = tested on: SK-OV-3
[12] = tested on: K562
[13] = tested on: SF-295
[14] = tested on: COLO 205
[15] = tested on: MOLT-4
[16] = tested on: OVCAR-4
[17] = tested on: SF-539
[18] = tested on: SK-MEL-2
[19] = tested on: CCRF-CEM
[20] = tested on: PC-3

| SMILES | GI50 [1] | GI50 [2] | GI50 [3] | GI50 [4] | GI50 [5] | GI50 [6] | GI50 [7] | GI50 [8] | GI50 [9] | GI50 [10] | GI50 [11] | GI50 [12] | GI50 [13] | GI50 [14] | GI50 [15] | GI50 [16] | GI50 [17] | GI50 [18] | GI50 [19] | GI50 [20] |
| --- | --- | --- | --- | --- | --- | --- | --- | --- | --- | --- | --- | --- | --- | --- | --- | --- | --- | --- | --- | --- |
| Nc1nc2sc3ccccc3c(=O)n2n1 | > 100 µM (inactive) | > 100 µM (inactive) | > 100 µM (inactive) | > 100 µM (inactive) | > 100 µM (inactive) | > 100 µM (inactive) | > 100 µM (inactive) | > 100 µM (inactive) | > 100 µM (inactive) | > 100 µM (inactive) | > 100 µM (inactive) | > 100 µM (inactive) | > 100 µM (inactive) | > 100 µM (inactive) | > 100 µM (inactive) | > 100 µM (inactive) | > 100 µM (inactive) | > 100 µM (inactive) | > 100 µM (inactive) | – |
| Clc1ccc(-c2c(C3=NCCN3)nnn2-c2ccc(Cl)cc2)cc1 | 17.1 µM (inactive) | 18.2 µM (inactive) | 19.8 µM (inactive) | 56 µM (inactive) | 14.8 µM (inactive) | 16.7 µM (inactive) | 53.2 µM (inactive) | 25.9 µM (inactive) | 16.7 µM (inactive) | 25.1 µM (inactive) | 29.6 µM (inactive) | 18 µM (inactive) | 19.5 µM (inactive) | 12.6 µM (inactive) | 11.4 µM (inactive) | 47.4 µM (inactive) | 18.2 µM (inactive) | 13.1 µM (inactive) | 22.6 µM (inactive) | – |
| N#CC(C(=N/O)/C(=N\O)C(C#N)c1ccccc1)c1ccccc1 (centres undefined) | > 100 µM (inactive) | > 100 µM (inactive) | > 100 µM (inactive) | > 100 µM (inactive) | > 100 µM (inactive) | > 100 µM (inactive) | > 100 µM (inactive) | > 100 µM (inactive) | > 100 µM (inactive) | > 100 µM (inactive) | > 100 µM (inactive) | > 100 µM (inactive) | > 100 µM (inactive) | > 100 µM (inactive) | > 100 µM (inactive) | > 100 µM (inactive) | > 100 µM (inactive) | > 100 µM (inactive) | > 100 µM (inactive) | – |
| O=C(NOC(=O)c1ccc([N+](=O)[O-])cc1)c1ccc(Cl)cc1 | > 100 µM (inactive) | 27.4 µM (inactive) | > 100 µM (inactive) | 21.4 µM (inactive) | > 100 µM (inactive) | 65.2 µM (inactive) | > 100 µM (inactive) | 38 µM (inactive) | 87.1 µM (inactive) | > 100 µM (inactive) | > 100 µM (inactive) | 21.6 µM (inactive) | > 100 µM (inactive) | > 100 µM (inactive) | 20.4 µM (inactive) | 88.9 µM (inactive) | > 100 µM (inactive) | > 100 µM (inactive) | 28.2 µM (inactive) | – |
| CN(C)CCNC1=Nc2ccccc2C(=O)N2CSCC12 (centres undefined) | > 100 µM (inactive) | – | > 100 µM (inactive) | > 100 µM (inactive) | > 100 µM (inactive) | > 100 µM (inactive) | > 100 µM (inactive) | > 100 µM (inactive) | > 100 µM (inactive) | > 100 µM (inactive) | > 100 µM (inactive) | > 100 µM (inactive) | > 100 µM (inactive) | > 100 µM (inactive) | > 100 µM (inactive) | > 100 µM (inactive) | – | > 100 µM (inactive) | > 100 µM (inactive) | > 100 µM (inactive) |
| C/C(=C\Cc1cc(O)ccc1O)CCc1c(C)c(O)c(O)c(C=O)c1C [PANICEIN C] | 47.9 µM (inactive) | 15.7 µM (inactive) | 20.3 µM (inactive) | 17.1 µM (inactive) | 23.8 µM (inactive) | 17.4 µM (inactive) | 30.4 µM (inactive) | 35.6 µM (inactive) | 16.1 µM (inactive) | 18.1 µM (inactive) | 26.7 µM (inactive) | > 100 µM (inactive) | 25.4 µM (inactive) | 18.6 µM (inactive) | 17.1 µM (inactive) | 26.5 µM (inactive) | 18.4 µM (inactive) | 23.2 µM (inactive) | 3.28 µM (inactive) | – |
| CCN(CC)CCOc1ccc(C(O)(Cc2ccc(OC)cc2)c2ccccc2)cc1 (centres undefined) | 14 µM (inactive) | 14.7 µM (inactive) | 17.3 µM (inactive) | 32.6 µM (inactive) | 22.2 µM (inactive) | 13.4 µM (inactive) | 21.8 µM (inactive) | 17.2 µM (inactive) | 13.1 µM (inactive) | 13.9 µM (inactive) | 23.6 µM (inactive) | 4.39 µM (inactive) | 17.7 µM (inactive) | 12 µM (inactive) | 14.4 µM (inactive) | 16.1 µM (inactive) | 12.4 µM (inactive) | 14.9 µM (inactive) | 17.6 µM (inactive) | – |
| CC#CC(OCC)(OCC)OCC | > 100 µM (inactive) | > 100 µM (inactive) | > 100 µM (inactive) | > 100 µM (inactive) | 81.8 µM (inactive) | > 100 µM (inactive) | > 100 µM (inactive) | – | > 100 µM (inactive) | > 100 µM (inactive) | > 100 µM (inactive) | > 100 µM (inactive) | > 100 µM (inactive) | 57.1 µM (inactive) | > 100 µM (inactive) | > 100 µM (inactive) | > 100 µM (inactive) | > 100 µM (inactive) | > 100 µM (inactive) | – |
| COc1cccc(-c2cc(O)c3cc4c(cc3n2)OCO4)c1 | 0.182 µM (active) | 18 µM (inactive) | 0.0502 µM (active) | 0.366 µM (active) | 0.142 µM (active) | 0.492 µM (active) | 0.313 µM (active) | 0.034 µM (active) | 0.0452 µM (active) | > 53.1 µM (inactive) | 0.0374 µM (active) | 0.0446 µM (active) | 0.0818 µM (active) | 0.132 µM (active) | 0.139 µM (active) | 0.938 µM (active) | 0.0603 µM (active) | 0.057 µM (active) | 0.0757 µM (active) | – |
| CCc1n[nH]c(=O)n1/N=C/c1ccccc1Cl | > 100 µM (inactive) | 74.8 µM (inactive) | 93.8 µM (inactive) | 78.3 µM (inactive) | > 100 µM (inactive) | > 100 µM (inactive) | > 100 µM (inactive) | > 100 µM (inactive) | 0.474 µM (active) | > 100 µM (inactive) | > 100 µM (inactive) | > 100 µM (inactive) | > 100 µM (inactive) | > 100 µM (inactive) | > 100 µM (inactive) | > 100 µM (inactive) | > 100 µM (inactive) | > 100 µM (inactive) | > 100 µM (inactive) | – |
| CCCCCCCCCCCCCC(=O)O[C@H]1CC[C@H](NC(=O)[C@H](OC)[C@H](O)[C@@H](O)[C@H](O)/C=C/C(C)C)C(=O)N(C)C1 [BENGAMIDE B] | 0.00195 µM (active) | 0.00684 µM (active) | 0.00418 µM (active) | 0.00235 µM (active) | < 0.0015 µM (active) | 0.0895 µM (active) | < 0.0015 µM (active) | 0.00433 µM (active) | 0.0615 µM (active) | 0.0113 µM (active) | 0.0721 µM (active) | 0.00811 µM (active) | 0.00675 µM (active) | 0.00259 µM (active) | 0.00643 µM (active) | 0.014 µM (active) | 0.0108 µM (active) | 0.0334 µM (active) | 0.0122 µM (active) | – |
| C[C@@H](NC1CCCC[C@H]1O)c1ccccc1 (some centres undefined) | > 100 µM (inactive) | > 100 µM (inactive) | > 100 µM (inactive) | > 100 µM (inactive) | > 100 µM (inactive) | > 100 µM (inactive) | > 100 µM (inactive) | > 100 µM (inactive) | > 100 µM (inactive) | > 100 µM (inactive) | > 100 µM (inactive) | > 100 µM (inactive) | > 100 µM (inactive) | > 100 µM (inactive) | > 100 µM (inactive) | > 100 µM (inactive) | > 100 µM (inactive) | > 100 µM (inactive) | > 100 µM (inactive) | – |
| CC(Br)C(=O)NN1C2=C(Nc3ccccc31)c1cccc3cccc2c13 (centres undefined) | 13.5 µM (inactive) | – | > 100 µM (inactive) | 34.4 µM (inactive) | 49.4 µM (inactive) | 48.4 µM (inactive) | 57.9 µM (inactive) | > 100 µM (inactive) | > 100 µM (inactive) | > 100 µM (inactive) | – | > 100 µM (inactive) | 39.3 µM (inactive) | 75.5 µM (inactive) | 36.6 µM (inactive) | – | > 100 µM (inactive) | – | 61.4 µM (inactive) | > 100 µM (inactive) |
| NC(CC(O)(c1ccccc1)c1ccccc1)c1ccccc1S (centres undefined) | 17.3 µM (inactive) | – | 12.5 µM (inactive) | > 10 µM (inactive) | 18 µM (inactive) | 22.2 µM (inactive) | 14.7 µM (inactive) | 16.7 µM (inactive) | 17 µM (inactive) | 17.5 µM (inactive) | 18.7 µM (inactive) | 16.4 µM (inactive) | 14.9 µM (inactive) | 15.4 µM (inactive) | 21.4 µM (inactive) | 15.9 µM (inactive) | – | 15.9 µM (inactive) | 13 µM (inactive) | 11.4 µM (inactive) |
| O=C(Sc1n[nH]c(=O)[nH]c1=O)c1cccc2nc3ccccc3nc12 | 27.9 µM (inactive) | > 100 µM (inactive) | 39 µM (inactive) | > 100 µM (inactive) | 8.63 µM (inactive) | 78.5 µM (inactive) | 4.05 µM (inactive) | 41.2 µM (inactive) | > 100 µM (inactive) | 30.7 µM (inactive) | > 100 µM (inactive) | 47.9 µM (inactive) | 57 µM (inactive) | 2.44 µM (inactive) | > 100 µM (inactive) | 76.9 µM (inactive) | 35.6 µM (inactive) | 68.2 µM (inactive) | > 100 µM (inactive) | – |

From ChEMBL document CHEMBL1201862, “PubChem BioAssay data set” (2004)
